The source of these data is PMC8043168, “Tribolium castaneum defensin 1 kills Moraxella catarrhalisin an in vitro infection model but does not harm commensal bacteria” (Virulence, 2021).

Bridge positions count the residues as written; N and C are the ends.

Data set [1] relates to M. catarrhalis. It counts as cell-based, Moraxella catarrhalis. The method, then:
Colonies of M. catarrhalis were grown on sheep blood agar plates for 12 h at 37°C and 5% CO2 before transfer to brain heart infusion (BHI) medium (Carl Roth, Karlsruhe, Germany) at an initial concentration of 1.6 × 10^7 cells/ml (OD600 = 0.08) as determined using an Ultraspec 10 cell densitometer (Amersham BioSciences, Little Chalfont, UK). Bacteria were cultivated in a shaking incubator at 37°C until the concentration reached 1.2 × 10^8 cells/ml (OD600 = 0.6) and then diluted to 2 × 10^6 cells/ml (OD600 = 0.011). To establish the optimal concentration ranges for AMP activity, defensin 1 was prepared as a two-fold dilution series from 12.5 µM to 1.56 µM and was added to the bacterial cultures, which were incubated as above for a further 16 h. Untreated cultures were used as controls. The OD600 was measured automatically at 30-min intervals using an Infinite M200 Pro plate reader (Tecan Life Sciences, Männedorf, Switzerland). […] They were cultivated for a further 15 h at 37°C and 5% CO2 in serial dilution before manual counting of the colonies on each plate.
Table S1. Detailed characterization of tested AMPs. M.c. were grown to an Optical Density (OD) 600nm of 0.6 in Brain Heart Infusion (BHI) Medium.
Upon dilution to OD600nm= 0.01, M.c. were incubated with declining amounts of indicated AMPs (25 μM to 0.048 μM at halving intervals) at 37°C with 5% CO2.
OD600nm was measured at 30 min intervals to establish the minimal inhibitory concentration (MIC). pI = isoelectric point, MW = molecular weight in kiloDalton.
MIC AMP name AMP class Organism Amino Acid Sequence pIMWPurity Retention time [min] modification
0.195 µM Cecropin A α-helical Hyalophora cecropia […] 10.75 4.00 91.06 7.30 n-term. amidation
0.39 µM Sarcotoxin IA α-helical Sarcophaga peregrina […] 11.07 4.16 91.37 9.37 n-term. amidation
~ 25µM Stomoxyn α-helical Stomoxys calcitrans […] 11.26 4.40 95.34 10.08 n-term. amidation
~ 25µM Spinigerin linear Pseudacanthotermes spiniger […] 11.07 3.00 96.23 12.45 none
>25µM Apidaecin Ia proline-rich Apis mellifera GNNRPVYIPQPRPPHPRI 11.71 2.11 92.98 16.91 none
>25µM Drosocin proline-rich Drosophila melanogaster GKPRPYSPRPTSHPRPIRV 12.01 2.20 92.86 11.65 none
>25µM Pyrrhocoricin proline-rich Pyrrhocoris apterus […] 10.27 2.34 93.17 11.38 none
>25 µM Metalnikowin-1 proline-rich Palomena prasina […] 9.98 1.84 92.85 13.36 none
>25 µM Metalnikowin-2A proline-rich Palomena prasina […] 9.98 1.84 92.39 10.85 none
>25 µM Metchnikowin-1 proline-rich Drosophila melanogaster […] 10.74 3.03 99.06 11.50 none
>25 µM Metchnikowin-2 proline-rich Drolophila melanogaster […] 11.54 3.04 97.16 11.46 none
12.5 µM Defensin 1 disulfide stabilized Tribolium castaneum […] 9.7 4.83 90.53 18.41 none
~ 25 µM Cecropin-like α-helical Lucilia sericata[…] 10.35 6.66 90.28 12.01 none
0.195 µM Cecropin α-helical Galleria mellonella […] 10.21 4.21 93.61 12.33 n-term. amidation
0.37 µM Cecropin α-helical Lucilia sericata […] 10.56 4.26 94.31 10.83 n-term. amidation
12.5 µM Stomoxyn α-helical Lucilia sericata […] 10.73 4.38 90.37 13.35n-term. amidation n-term.
1.56 µM Cecropin(Sarcotoxin) α-helical Eristalis tenax […] 10.56 4.14 90.80 9.76 none

The conditions of data set [2]: up to a concentration of 100 µM; cited from earlier work.
In data set [3] the test system is BDMs activated by LPS. The data set can be described thus: Sterile activation of BDMs by LPS. The conditions noted are these: defensin 1 added 1 h after LPS. In kind it is cell-based, human. The method, then:
(§1) The presence of cytokines in the BDM supernatant after infection and treatment with 12.5 µM defensin 1 was assessed using the MAGPIX Multiplex ELISA (Luminex, Austin, TX, USA). BDM supernatants were prepared as recommended for the MAGPIX system. The cytokine panel comprised MIP1-α, MCP1, IL-1β, IL-6, IL-8, IL-10, IL-12p70, IL-23, LAP and TNF-α.
(§2) Statistical interpretation of the multiplex ELISA data required the incorporation of data points outside the detection range and adjustments for the effect of parallel technical measurements from the same biological samples. We therefore used the Hodges and Lehmann nonparametric aligned ranks test to compare cytokine secretion by treatment time within treatment groups and between the following control and treatment groups: […]

The test system of data set [4] is macrophages. To be noted: cited from earlier work. The source says:
Defensin 1 limited the expressio ...

Data set [5] relates to BDMs infected with M. catarrhalis. The data set can be described thus: Multiplex ELISA of cytokines in BDM supernatant after infection. It counts as cell-based, human. The conditions noted are these: defensin 1 12.5 µM, 1 or 5 h post-infection, MOI 0.5 or 1. The method, then: as §1, §2
(ELISA stands for enzyme-linked immunosorbent assay.)

Data set [6] concerns E. faecalis. The data set can be described thus: Growth kinetics of commensal E. faecalis. In kind it is cell-based, Enterococcus faecalis. To be noted: liquid BHI medium, 37°C, OD600 every 30 min; defensin 1 12.5 µM, sarcotoxin 1 C 0.39 µM. The method, then: For the analysis of commensal bacteria, E. faecalis was grown on Columbia agar plates or in liquid BHI medium, and E. coli was grown on McConkey agar or in liquid LB medium. After overnight culture on agar plates at 37°C and 5% CO2, both species were transferred to liquid medium at an initial OD600 of 0.005. The cultures were maintained in a shaking incubator at 37°C, and the OD600 was measured automatically at 30-min intervals as above.

Data set [7] deals with BDMs infected with M. catarrhalis. The data set can be described thus: qRT-PCR of cytokine mRNA in infected BDMs. It counts as cell-based, human. The conditions noted are these: defensin 1 12.5 µM given 1 or 5 h after infection, MOI 0.5 or 1; collected 16 h post-infection. On the procedure: BDMs were infected with M. catarrhalis as described above and the cells and supernatant were collected 16 h post-infection. Total RNA was isolated by phenol-chloroform extraction followed by reverse transcription using the High-Capacity RNA-to-cDNA kit (Thermo Fisher Scientific, Waltham, MA, USA). Quantitative real-time PCR (qRT-PCR) was performed with the following specific primer pairs to measure the expression of IL-1β (forward primer 5′-AGCTCGCCAGTGAAATGATGG-3′ and reverse primer 5′-CAGGTCCTGGAAGGAGCACTTC-3′), IL-8 (forward primer 5′-ACTGAGAGTGATTGAGAGTGGAC-3′ and reverse primer 5′-AACCCTCTGCACCCAGTTTTC-3′), and RPS18 (forward primer 5′-GCGGCGGAAAATAGCCTTTG-3′ and reverse primer 5′-GATCACACGTCCACCTCATC-3′).
(Real-time PCR tracks product formation cycle by cycle.)

Turning to “H-VTCDLLSAEAKGVKVNHAACAAHCLLKRKRGGYCNKRRICVCRN-OH (disulfide 3-34, 20-40, 24-42 (inferred)) [Defensin 1]”, the “MIC (minimal inhibitory concentration)” value in data set [1] (12 h) was determined as 12.5 µM. Moreover, the “concentration that completely abolished/inhibited the growth of M. catarrhalis” value in data set [1] (growth curve in BHI, two-fold dilution series, 37°C, 16 h, OD600 every 30 min) came out at 12.5 µM. In addition, the hemolytic activity entry in data set [2] is “minimal hemolytic activity”. Further, the “sterile activation of BDMs by LPS in presence of peptide” value in data set [3] was “not significantly affected”. Besides, the toxicity toward macrophages result in data set [4] was “nontoxic”. Also, in data set [5], the “bacteria-induced secretion of IL-1β” value was “inhibited”, the “bacteria-induced secretion of IL-10” value was “inhibited”, the “bacteria-induced secretion of IL-12p70” value was “inhibited” and the “bacteria-induced secretion of IL-23” value is on record as “inhibited”. Also, the “effect on growth of E. faecalis” value in data set [6] is on record as “minor growth delay”. In addition, in data set [7], the “IL-1β expression (mRNA, qRT-PCR)” value is recorded as “limited the expression” and the “IL-8 expression (mRNA, qRT-PCR)” value was “limited the expression”.
